From a melting point compilation (Tetko et al.; mined from patent text by program, amines drawn as free bases though some values may be those of a salt)

| melting point [°C] | Compound |
| --- | --- |
| 253 | Cc1cc(NC(=O)C2=C(O)c3ccc4ccccc4c3S(=O)(=O)N2C)no1 |
| 105 to 108 | CC(C)(C)c1cc(N)cc(C(C)(C)C)c1O |
| 146 to 148 | O=C(Nc1ccc(Nc2ccccc2)cc1)OCCc1ccc([N+](=O)[O-])cc1 |
| 54 to 54.5 | CCCc1ccc2nc(C(=O)OCC)cn2n1 |
| 92 to 95 | C[Si](C)(C)CCC1=C(OC(=O)c2ccccc2)C(=O)c2ccccc2C1=O |
| 134 to 135 | CCOC(=O)C1=C(C)NC(SCc2ccc(OC)cc2)=NC1c1cccc(Cl)c1Cl (configuration not stated) |
| 134 to 136 | CNC(=O)N1CC(Oc2ccccc2C(F)(F)F)C1 |
| 132 to 133 | CC(=O)OCCCCCn1ccc(=O)c(O)c1C |
| 121 to 123 | Cc1ccc(OCC2CO2)c([N+](=O)[O-])c1[N+](=O)[O-] (configuration not stated) |
| 131 to 132 | CC(C)CC1(C(CCN2C(=O)c3c(F)ccc(F)c3C2=O)C(=O)NO)CCN(CCc2ccccc2)C1=O (configuration not stated) |
| 193 to 195 | CCCCCN1C(=O)C(O)(c2cc3c(cc2O)OCO3)c2ccncc21 (configuration not stated) |
| 157 to 160 | CCCc1nc2c(N)nc3cc(OCCCO)ccc3c2s1 |
| 273 to 276 | COc1cc2c(cc1OC)-c1c(C(=O)NC3CCCCC3)c(-c3cc(C)c(O)c(C)c3)c(C)n1CC2 |
| 193 | COc1ccc2c(CC(=O)O)c(C(=O)c3ccc(Cl)cc3)[nH]c2c1 |
| 114 to 115 | CCC(C)(C)OC(=O)N1CCC(c2ccc(COc3ccc(S(C)(=O)=O)cc3)nc2)CC1 |
| 132 to 133 | CC(C)n1c(=O)ccc2cnc(S(C)=O)nc21 (configuration not stated) |
| 146 to 147 | Cc1nc(N2CCN(CC3CC3)C2=O)sc1C(=O)NCc1ccc(F)cc1 |
| 169 to 170 | Cc1nc(N2CCC(Cc3ccc(F)cc3)C2=O)sc1C(=O)NCc1cccnc1 (configuration not stated) |
| 66 to 69 | NS(=O)(=O)OCCOc1cccc(Cl)c1 |
| 149 to 154 | COc1cc(C(O)c2ccnn2C)c(Cl)c(Cl)c1OC (configuration not stated) |

| melting point [°C] | Compound |
| --- | --- |
| 45 to 53 | COc1ccc(CONC(=O)[C@@H](C(C)C)N(Cc2cccnc2)S(=O)(=O)c2ccc(OC)cc2)cc1 |
| 88 to 90 | CCCCCCCN(CC1(c2ccccc2)CCCC1)C(=O)Nc1ccc(F)cc1F |
| 127 to 133 | CCN1C(=O)C(C)(C)C(=O)N(C)c2cc(CN(CCn3ccc4oc(C)cc4c3=O)Cc3nc4ccccc4n3C)ccc21 |
| 57 | CCCCCCCCCCCCCCCCCCNC(=O)OCCN1CCCC1 |
| 231 to 232 | CC(=O)OC(C)c1ccc2occ(-c3nnn[nH]3)c(=O)c2c1 (configuration not stated) |
| 123 to 125 | CCOC(OCC)c1coc2cc3c(cc2c1=O)OCO3 |
| 206 to 208 | CC(=O)c1ccc(O)c(CS(C)(=O)=O)c1 |
| 142 to 143 | COc1ccc2c(c1)CCN(Cc1cnc(C)nc1N)C2 |
| 189 to 192 | CC(=O)C1CCC2=C(C1)C(=O)c1cc3ccccc3cc1C2=O (configuration not stated) |
| 163 to 165 | CCOC(=O)c1cc2c(OCC(O)CNC(C)C)cc(C)cc2[nH]1 (configuration not stated) |
| 116 to 118 | O=C(Cc1cccnn1)c1ccc(F)cc1F |
| > 350 | Cn1c(=O)[nH]c2c(C(N)=O)nc(-c3cccnc3)nc21 |
| 145 to 147 | Cc1[nH]c(C(=O)N2CCN(c3ccccc3)CC2)c(C)c1-c1nc2ccc(C(=O)c3ccccc3)cc2[nH]1 |
| 223 to 225 | COc1cc(NC(=O)Nc2cccc3c2C2CC(=O)CCN2C3=O)nc2ccccc12 (configuration not stated) |
| 106 to 108 | CCCCNC(=O)Oc1ccc(Oc2ccc(Cl)cc2)cc1 |
| 72 to 73 | COC(=O)c1ccc(Cl)cc1NC(=O)CSc1cccc(OC)c1 |
| 167 to 170 | CC(C)c1nc(CCOC(N)=O)n(Cc2ccccc2N)c1Sc1cc(Cl)cc(Cl)c1 |
| 150 to 152 | COc1ccc(C(=O)OC2C(O)C=C(C)C(=O)CC2(C)C)cc1OC (configuration not stated) |
| 130 | CC(C)C(C(N)=S)N(C)C(=O)OCc1ccccc1 (configuration not stated) |
| 86 to 87 | CC(C)OC(=O)c1cc(N)n(C)n1 |

| melting point [°C] | Compound |
| --- | --- |
| 80 to 82 | CCCCCCCCCCCCCCc1c[nH]c(C(=O)OC)c1 |
| 219 to 220 | Cc1ccccc1C(=O)Nc1ccc(C(=O)N2CCS(=O)(=O)c3ccccc32)cc1 |
| 175 to 177 | COC(=O)c1ccc2cc(CCc3cc4ccc(C(=O)OC)cc4o3)oc2c1 |
| 86 to 89 | CCCCCCC(C(=O)OCC)n1cnc2c([N+](=O)[O-])cccc21 (configuration not stated) |
| 171 to 174 | CC(C)(O)C(=O)Nc1ccc(Nc2ccccc2)cc1 |
| 181 to 185 | C[C@H]1[C@H](N(C)C)CN1c1cc2c(cc1F)c(=O)c(C(=O)O)cn2C1CC1 (relative stereo) |
| 242 to 244 | O=CCCc1cc(F)c2ncc(C(=O)NCc3ccc(Cl)cc3)c(O)c2c1 |
| 117 to 119 | CCC(CC)N(Cc1ccc(C(=O)OC)cn1)S(=O)(=O)c1ccc(F)cc1 |
| 143 to 145 | O=C1CCCC(=O)C1Cc1ccccc1CCCCl |
| 235 to 238 | NC(=O)c1ccc(Cn2ccc(OCc3ccc(F)cc3F)c(Cl)c2=O)cc1 |
| 70 | CCC(O)c1cc2ccccc2cc1CO (configuration not stated) |
| 198 to 203 | COC(=O)CCCCCCCC(=O)Nc1c(I)c(C(=O)O)c(I)c(N(C)C(C)=O)c1I |
| 249 to 250 | CCc1c(OC)nc2nc(C(=N)NO)cn2c1C |
| 107 | CCOC(=O)C1(Nc2ccc(C(O)(C(F)(F)F)C(F)(F)F)cc2)CCC(C(C)(C)C)CC1 (configuration not stated) |
| 53 to 54 | CC(C)=Cc1ccc(C(C)C(=O)O)cc1 (configuration not stated) |
| 230 to 235 | O=C(O)c1cn(CCc2cccc(Cl)c2)c2cc(C3CC3)nn2c1=O |
| 144 to 147 | COC(=O)c1ccc(N(N)C(=O)c2ccc(Cl)c(S(N)(=O)=O)c2)c([N+](=O)[O-])c1 |
| 144 to 145 | COC(=O)c1cc(Cl)cc2ccoc12 |

The next lines start with the compound.

| Compound | melting point [°C] |
| --- | --- |
| Cc1ccc(N=Nc2ccc(-c3ccc(-c4ccc(N=Nc5ccc(C)cn5)cc4OC(C)C)o3)c(OC(C)C)c2)nc1 | 185 to 194 |
| COCc1cc(C2=NOC(c3cc(Cl)cc(Cl)c3)(C(F)(F)F)C2)ccc1C(=O)NC(=N)OC (configuration not stated) | 132 to 134 |
| O=C1c2ccccc2C(=O)N1c1ncc(C(Cl)Cl)nc1CO | 188 to 189 |
| CCC1(C)CC(NC(=O)c2ccccc2)C(C)C(C)(CC)N1OC(C)c1ccccc1 (configuration not stated) | 112 to 147 |
| O=C(c1ccccc1F)c1cc(Cl)ccc1C=CCN1C(=O)c2ccccc2C1=O | 117 |
| CC(C)(C)c1ccc(OC2CN(C(c3ccccc3)c3ccccc3)C2)cc1 | 126 to 127 |
| Cc1ccc(S(=O)(=O)OCC2CC(OS(=O)(=O)c3ccc(C)cc3)CN2S(=O)(=O)c2ccc(C)cc2)cc1 (configuration not stated) | 134 to 135 |
| CN(C)CCc1c[nH]c2ccc([N+](=O)[O-])cc12 | 132 to 135 |
| Cc1ccc(S(=O)(=O)NC(C)(C)CO)cc1NC(=O)c1cnn2c(C(F)F)cc(-c3ccc(C(F)(F)F)cc3)nc12 | 214 |
| Fc1ccc2[nH]c3c(c2c1)Cc1ccccc1-3 | 225 to 227 |
| CC(N/C(C#N)=C(\N)C#N)c1ccc(Cl)cc1 (configuration not stated) | 145 to 146 |
| Cc1c(NC(=O)CC(C)(C)C)cc2c(c1C)OC(C)(C)C2c1ccccc1C(C)C (configuration not stated) | 188 to 189 |
| CSc1sc(-c2ncn(C)n2)c2c1C(=O)CC(C)(C)C2 | 146 to 148 |
| O=C(c1ccc(-c2ccc(C(CC3CCOCC3)c3ccc(S(=O)(=O)C4CC4)cc3)[nH]2)nc1)N1CCOCC1 (configuration not stated) | 114 to 116 |
| OCC1OC(n2cnc3c(NCCc4csc5ccc(Cl)cc45)ncnc32)C(O)C1O (configuration not stated) | 167 to 169 |
| Clc1ccc(Oc2cncc3sc(-c4ccco4)cc23)cc1 | 75 to 77 |
| Cc1c2c3c(nc(N)c2nn1C)CCCC3 | 258 to 259 |
| COc1cc(N2CCCN(C3CCN(C)CC3)CC2)ccc1Nc1ncc2ccc(-c3ccccc3OC)n2n1 | 71 to 80 |
| COC(=O)c1nc(Cl)c(N2CCCC2)nc1N | 245 to 248 |
| O=[N+]([O-])c1cnc2ccc(F)cc2c1Nc1ccccc1F | 161 to 162 |

| Compound | melting point [°C] |
| --- | --- |
| O=C(O)c1ccc(-n2nc(-c3ccccc3O)nc2-c2ccccc2O)cc1 | 255 to 262 |
| Cn1cc(-c2ccccc2)c(=S)c(-c2cccc(Cl)c2)c1 | 190 to 193 |
| OC(CNC1CCC1)c1cc(C(F)(F)F)nc2c(C(F)(F)F)cccc12 (configuration not stated) | 145 |
| COc1ccc(-c2nc(Sc3ccc(Cl)cc3)cc(N3CCN(C)CC3)n2)cc1 | 143 to 145 |
| FC(F)(F)CSc1nc2ccccc2[nH]1 | 148 to 150 |
| COc1ccc(C(=Cc2ccncc2)c2ccncc2)cc1OC1CCCC1 | 136 to 138 |
| CCc1ncnc2ccc(C#Cc3cc(OC)ccc3OC)cc12 | 103 to 105 |
| N=C(Nc1ccccc1)Nc1ncccc1OCc1ccc(Cl)cc1 | 173 to 174 |
| O=C(CCC(=O)N1CCC(c2ccc(Cl)cc2)CC1)c1ccc2c(c1)CCN(CC1CCCCC1)CC2 | 140 to 141 |
| COc1ccc(-c2[nH]nc3c2C(=O)c2c(NC(=O)CCNc4ccncc4)cccc2-3)cc1 | > 300 |
| C=CCN1C2CCC3C1CCC2N3C(c1ccc(C(=O)N2CCCCC2)cc1)c1cccc(O)c1 (configuration not stated) | 70 to 73 |
| C=Cc1cccc2c1-c1ccc3c(c1C(C1(C)CC=CCC1)O2)C(C)=CC(C)(C)N3 (configuration not stated) | 198 to 201 |
| COc1ccc2sc(C34CC5CC(CC(C5)C3)C4)cc(=O)c2c1 | 140 |
| O=C(O)c1cnn2c(C(F)(F)F)cc(-c3ccc(F)c(F)c3)nc12 | 274 |
| CNC(=S)C1(c2cnc3ccccc3c2)CCCCC1=O (configuration not stated) | 235 to 236 |
| O=C(NC1(C2CC2)CC1)c1c(NC(=O)c2cc(C(F)(F)F)nn2-c2ncccc2Cl)ccc2cn[nH]c12 | 224 to 227 |
| CCOP(=O)(/C=C/c1cn(-c2ccccc2)nc1OCc1ccc(OCc2sc(-c3ccccc3)nc2C)c(OC)c1)OCC | 113 to 114 |
| COc1ccc(-c2snnc2-c2ccccc2)cc1 | 56.5 to 58 |
| C=C1C[C@@H]2[C@H](CC[C@]3(C)C(=O)CC[C@@H]23)[C@@]2(C)CCC(=O)C(S)=C12 | 195 to 197 |
